Measurements taken from patent publication US20150366879A1, “DIFLUPREDNATE EMULSION COMPOSITION CONTAINING ANTIMICROBIAL METAL” (SENJU PHARMACEUTICAL CO., LTD., priority 2013, published 2015).
Structures can show the parent of a compound that is named as a salt. Where two headings read alike, the source gives them in different places.

Test system: Staphylococcus aureus, Escherichia coli and Pseudomonas aeruginosa
Assay: preservative efficacy test, judgment of immediate effectiveness over all microbial species
Type: cell-based
Procedure: As the test microorganism, Staphylococcus aureus (ATCC 6538), Escherichia coli (ATCC 8739) and Pseudomonas aeruginosa (ATCC 9027) were used. Each test microorganism was inoculated on the surface of a slant agar medium and precultured. The preculture was conducted using a soybean casein digest agar medium at 30-35° C. for 18-24 hr.
An emulsion composition to be subjected to the test was used as a sample, and the sample was dispensed to 5 sterilized stoppered test tubes by 10 mL each. A precultured test microorganism was added to the sample such that the cell count was 10^5-10^6 cells/mL to give a mixed sample. The test microorganism was singly added to the sample. The mixed sample was preserved at 20-25° C. with protection from light.
At 6 hr and 24 hr from the start of the preservation, 1 mL of each mixed sample was taken, and the solution was diluted with saline (9 mL). Similar dilution was performed 2-3 times and each diluted solution (1 mL) was dispensed to a sterilized petri dish, and then, 0.1 (w/v) % lecithin-0.7 (w/v) % polysorbate 80-added soybean casein digest agar medium was added to the bacteria, and the mixture was cultured at 30-35° C. for about 3 days. The colony forming units were measured, and the viable cell count per 1 mL of the mixed sample was calculated.
When the viable cell counts of all microbial species decreased by 3 log or more after 24 hr from the start of the test, an immediate effectiveness of preservative efficacy was judged to be present and the judgment was compatible. When further immediate effectiveness of preservative efficacy is demanded, it was judged to be present when the viable cell counts of all microbial species decreased by 3 log or more after 24 hr from the start of the test and the viable cell counts of all microbial species decreased by 2 log or more after 6 hr from the start of the test, and the judgment was compatible.

[1] = added as preservative to difluprednate emulsion composition

O=S(=O)([O-])[O-].[Cu+2] [copper sulfate]
concentration at which excellent immediate effectiveness of preservative efficacy was obtained: not less than 0.0005 (w/v) %

Oc1cccc2cccnc12 [oxyquinoline sulfate]
immediate effectiveness of preservative efficacy: not found

O=[N+]([O-])[O-].[Ag+] [silver nitrate]
concentration at which further (excellent) immediate effectiveness was found (as silver ion, 6 hr and 24 hr criteria, in difluprednate emulsion): not less than 0.005 (w/v) %
concentration at which immediate effectiveness of preservative efficacy was found (as silver ion, 24 hr criterion, in difluprednate emulsion): not less than 0.0005 (w/v) %

C/C=C/C=C/C(=O)O [sorbic acid]
immediate effectiveness of preservative efficacy [1]: not found

benzalkonium chloride
immediate effectiveness of preservative efficacy [1]: not found
